Where two headings read alike, the source gives them in different places.
What was measured:
rats [1] = assay: NORT after 21 day administration, discrimination index; type: in vivo, rat; conditions: for reversal of (+)MK-801-induced memory disturbances (DI): (+)MK-801 0.1 mg/kg
Procedure: Standard laboratory food (LSM-B) and filtered water as well as environment enrichment were freely available. Animals were randomly divided into treatment groups using a computer-based random order generator. All of the experiments were performed by two observers unaware of the treatment applied between 9:00 and 14:00 on separate groups of animals.
In the NOR test (NORT), rats were randomly divided into experimental groups (n = 8/group). […] All compounds were prepared immediately before administration and were injected intraperitoneally (i.p.) in a constant volume of 2 mL/kg. […] The control group received 1% Tween 80 on the same schedule.
The test was carried out according to the method described by Ennaceur.[46] NORT was conducted in two black-painted wood boxes (60 cm × 60 cm × 60 cm). A video camera mounted above the boxes recorded all experiments. Two days before the test, the rats were placed in the empty experimental boxes for 5 min as a habituation to the test area. On the third day, the test was performed in 2 trials lasting for 3 min at one-hour intervals. First session, familiarization (T1) with two identical objects (A1 and A2) located in the opposite corners of the boxes, approximately 10 cm from the walls, and second trial, recognition (T2) with one familiar (A) and one novel object (B). Metal cans and glass jars with sand were used as the objects. The boxes were cleaned and dried after each measurement. The exploration time (E) of the objects (such as looking, licking, sniffing, or touching while sniffing) during T2 was measured, and the discrimination index (DI) was calculated according to the following formula: DI = (EB – EA)/(EA + EB).
The normality of data distribution and the homogeneity of variance were checked using the Shapiro–Wilk’s test and Levene’s test, respectively. All behavioral results are shown as the means ± SEM.

rats [2] = conditions: acute administration, cited from earlier work
SH-SY5Y cells [3] = assay: ROS assay (2',7'DCFH2-DA), rotenone-induced neurotoxicity; type: cell-based, human; conditions: ROT 32.5 μM alone, 3 h
Procedure: The ROS measurement was assayed by 2′,7′-dichlorofluorescin diacetate (2′, 7′DCFH2-DA, Sigma, no. D6883). The protocol was previously described in detail.[10] […] The following day, all treatments were carried out with warmed HBSS containing 25 mM HEPES (hereafter referred to as HBSS), and during the operational steps, the cells were kept at 37 °C to minimize temperature stress.

[4] = design: method as in PMID 38190615, PMID 35228010; conditions: LC/MS after biotransformation in rLMs; cited from earlier work
HT-22 cell line [5] = assay: protection against Aβ1–42, cell membrane damage (ToxiLight); type: cell-based, mouse; conditions: 10 μM pretreatment 1 h, Aβ1–42 35 μM 16 h
Procedure: Cells were cultured in Dulbecco’s modified Eagle’s Medium-high glucose (DMEM, GlutaMAX ThermoFisher) supplemented with 10% inactivated fetal bovine serum heat (Thermo Fisher), 100 IU/mL penicillin (Merck), and 100 μg/mL streptomycin (Merck). Cells were cultured in flasks (area 175 cm^2, Nunc) and incubated at 37 °C, 5% CO2. To measure the neuroprotective effect against Aβ1–42, cells were placed in a 96-well culture plate (5 × 10^3 cells per well, Falcon). To measure the toxicity of tested compounds, cells were placed in a 96-well culture plate (5 × 10^3 and 2 × 10^4 cells per well, Falcon).
Stock solutions were prepared at a concentration of 10 mM for the tested compounds. A minimum of 1 mg of each tested compound was weighed and dissolved in an appropriate volume of dimethyl sulfoxide (DMSO). Serial dilutions were prepared in DMSO, and then, the diluted compounds were transferred to phosphate-buffered saline (PBS), mixed, and put into a medium with adherent cells. Before the assays, eventual precipitation or opalescence was checked. […]
Then, 20 μL of adenylate kinase detection reagent was added. The luminescence was measured after 10 min of incubation with a plate reader, POLARstar Omega (BMG Labtech). The results are expressed as a percentage of the control (Aβ1–42), corresponding to the percentage of dead cells concerning the control sample.

HT-22 cell line [6] = assay: protection against Aβ1–42, ROS (CellROX); type: cell-based, mouse; conditions: 10 μM pretreatment 1 h, Aβ1–42 35 μM 16 h
Procedure: Cells were cultured in Dulbecco’s modified Eagle’s Medium-high glucose (DMEM, GlutaMAX ThermoFisher) supplemented with 10% inactivated fetal bovine serum heat (Thermo Fisher), 100 IU/mL penicillin (Merck), and 100 μg/mL streptomycin (Merck). Cells were cultured in flasks (area 175 cm^2, Nunc) and incubated at 37 °C, 5% CO2. To measure the neuroprotective effect against Aβ1–42, cells were placed in a 96-well culture plate (5 × 10^3 cells per well, Falcon).
Stock solutions were prepared at a concentration of 10 mM for the tested compounds. A minimum of 1 mg of each tested compound was weighed and dissolved in an appropriate volume of dimethyl sulfoxide (DMSO). Serial dilutions were prepared in DMSO, and then, the diluted compounds were transferred to phosphate-buffered saline (PBS), mixed, and put into a medium with adherent cells. Before the assays, eventual precipitation or opalescence was checked.
Aβ1–42 (Merck) was initially dissolved in 1,1,1,3,3,3- hexafluor-2-propanol (Merck). […] After this time, the Aβ1–42 solution was evaporated by using nitrogen gas. Next, DMSO was added to obtain a 2 mM stock solution of β-amyloid. […]
After the end of incubation with the tested compounds, the supernatant was removed, and cells were incubated with CellROX (5 μM) in DMEM FluoroBrite (ThermoFisher) for 1 h at 37 °C. The results are expressed as a percentage of control (Aβ1–42).

SH-SY5Y cells [7] = assay: qRT-PCR of neurodegeneration-associated genes; type: cell-based, human; conditions: 24 h
SH-SY5Y cells [8] = assay: MTS assay 72 h, neurotoxic effect; type: cell-based, human; conditions: 10 and 50 μM
Procedure: SHSY5Y cells were grown in DMEM supplemented by 10% FBS, L-glutamine (2 mM), and penicillin (100u/mL)/streptomycin (100 μg/mL). The cell line was tested for mycoplasma using DAPI staining and the LookOut Mycoplasma PCR Detection Kit (MP0035, Merck). The cell line was authenticated after thawing by a morphology check, cell proliferation rate evaluation, and species verification by PCR. Bacteria contamination was excluded. […] Subsequently, cells were subjected to a CellTiter 96 AQueous One Solution Cell Proliferation Assay (Promega), according to the manufacturer’s protocol. The absorbance at 490 nm was evaluated to estimate the cell number.

HepG2 = tested on: HepG2; design: method as in PMID 38190615, PMID 35228010; conditions: tested at 0.1–100 μM; cited from earlier work
[9] = design: method as in PMID 38190615, PMID 35228010; conditions: AMES test; cited from earlier work
NRF2 = assay: Western blot for NRF2 (total and nuclear extracts); type: cell-based, human; conditions: 10 μM, 24 h
SH-SY5Y cells [10] = conditions: 50 μM, 27 h; cited from earlier work
[11] = design: method as in PMID 38190615; conditions: serum, cited from earlier work
[12] = 1 mg/kg i.p., cited from earlier work

C[C@]12N[C@H](Cc3ccccc31)c1ccccc12 [(+)MK-801, reference compound]
effect on memory functions (DI) (rats [1]; 0.1 mg/kg i.p. once, 30 min before the test): induced deficits in memory functions

COc1cc2c(cc1OC)C(=O)C(CC1CCN(Cc3ccccc3)CC1)C2 (stereo not drawn) [donepezil, reference compound]
active dose in NOR test (significantly reversed MK-801 memory disturbances) (rats [2]; rat): g Dose of a compound that in a statistically significant manner reversed memory disturbances caused by MK-801 in the novel object recognition (NOR) test in rats;[12],[13] active dose for donepezil was 1 mg/kg. mg/kg i.p
influence on memory compared to vehicle-treated rats (DI) (rats [1]; 1 mg/kg/day i.p., 21 days, without (+)MK-801): No memory changing
reversal of (+)MK-801-induced memory disturbances (DI) (rats [1]; 1 mg/kg/day i.p., 21 days): reverse memory disturbances
minimal active chronic dose (rats [1]; i.p., 21 days, reversal of (+)MK-801-induced memory impairments): 1 mg/kg/day

C=C(C)[C@H]1Cc2c(ccc3c2O[C@@H]2COc4cc(OC)c(OC)cc4[C@@H]2C3=O)O1 [ROT, Rotenone, reference compound]
ROS level (Ctr set as 100%) (SH-SY5Y cells [3]): 176%

CN1CCN(c2nc(N)nc(C(C)(C)[Se]c3ccc4ccccc4c3)n2)CC1 [PPK-32]
metabolic stability, % of remaining structure [4]: 37%
protection of cell integrity against membrane destruction caused by Aβ1–42 (HT-22 cell line [5]): slightly more potent than the thioether WA-22
memory-protective action at doses as low as (rats [2]; male Wistar rats, (+)MK-801): 0.3 mg/kg
decrease of ROS induced by Aβ (HT-22 cell line [6]): displayed the ability to decrease ROS
expression of beta-secretase BACE1 (SH-SY5Y cells [7]; 10 μM): negatively regulate
NRF2 transcription (SH-SY5Y cells [7]; 10 and 50 μM): neither WA-22 nor PPK-32 were able to stimulate its transcription
expression of NQO1, SOD1, and HO1 (SH-SY5Y cells [7]; 10 and 50 μM): induce the expression
expression of pro-inflammatory gene NFkB (SH-SY5Y cells [7]; 10 and 50 μM): neither WA-22 nor PPK-32 were able to downregulate
neurotoxic effect (MTS) (SH-SY5Y cells [8]): no significant differences
hepatotoxic (statistically significant HepG2 viability decrease) (HepG2): >100 µM
mutagenic [9]: no
NRF2 protein amount (total extract) (NRF2; GAPDH loading control): protein amount was not modulated
NRF2 translocation from cytoplasm to nucleus (NRF2; nuclear extracts, H3 loading control): distinctly stronger than that upon WA-22 treatment
reversal of (+)MK-801-induced memory disturbances (DI) (rats [1]; 1 mg/kg/day i.p., 21 days): inactive
reversal of (+)MK-801-induced memory disturbances (DI) (rats [1]; 3 mg/kg/day i.p., 21 days): significantly reversed
reduction of cell viability compared to Ctr (SH-SY5Y cells [10]): 45%
AUC0–∞ ([11]; 1 mg/kg i.p.): 1833.92 ng·min/mL
Cmax ([11]; 1.0 mg/kg i.p.): 34.9 ng/mL
detected in rat organs up to (time after administration) [12]: up to 120 min
Cmax ([12]; brain, highest value 30 min after administration): 54.9 ng/g
t1/2λz ([12]; liver): 1.42 h
